The values that follow come from patent US20200102295A1, “NITROCATECHOL DERIVATIVES AS COMT INHIBITORS” (BIAL - PORTELA & CA, S.A., priority 2005, published 2020).

One data set has as its target T1, rat liver COMT (Rattus norvegicus, UniProt P22734).
T1 construct: the organs were immediately removed and homogenised in 5 mM phosphate buffer of pH 7.8; from tissue; host or cells: rat liver homogenate (Wistar rats, dosed orally; ex vivo activity)
T1 sequence (P22734 1-264): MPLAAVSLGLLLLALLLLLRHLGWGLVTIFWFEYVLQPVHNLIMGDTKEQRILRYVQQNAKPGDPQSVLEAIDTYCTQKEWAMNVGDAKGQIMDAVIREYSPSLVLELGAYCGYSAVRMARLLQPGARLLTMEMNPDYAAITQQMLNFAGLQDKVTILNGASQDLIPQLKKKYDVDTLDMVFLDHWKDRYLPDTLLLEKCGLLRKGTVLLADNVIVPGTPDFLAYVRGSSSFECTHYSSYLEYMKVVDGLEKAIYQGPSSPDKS
As to the kind of experiment: Rat liver COMT activity after oral administration of test compounds. Type of data set: in vivo. Conditions: for Rat Liver COMT activity (% control): 3 mg/kg oral.

Another data set deals with T2, mouse liver COMT (Mus musculus, UniProt O88587).
T2 construct: Aliquots of 0.5 ml of liver homogenates were preincubated; from tissue; host or cells: mouse liver homogenate (NMRI mice, dosed orally; ex vivo activity)
T2 sequence (O88587 1-265): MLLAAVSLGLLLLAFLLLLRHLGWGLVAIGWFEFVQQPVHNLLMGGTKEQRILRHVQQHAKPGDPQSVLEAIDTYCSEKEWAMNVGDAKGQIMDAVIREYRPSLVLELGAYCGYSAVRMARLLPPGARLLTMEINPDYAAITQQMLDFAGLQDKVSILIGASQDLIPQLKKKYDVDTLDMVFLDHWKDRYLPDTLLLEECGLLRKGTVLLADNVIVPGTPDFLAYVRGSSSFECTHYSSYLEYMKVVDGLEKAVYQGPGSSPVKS
As to the kind of experiment: Mouse liver COMT activity after oral administration of test compounds. Type of data set: in vivo. Conditions: 3 mg/kg oral, 3 h after administration.

Data set [1] has as its system Neuro 2A mouse neuroblastoma cells. As to the kind of experiment: Cell toxicity: Neuro 2A cell viability (calcein-AM). In kind it is cell-based. Conditions: Neuro 2A cells, 30 μM, 24 h exposure.
Data set [2] deals with plasma levels of L-DOPA and 3-O-methyl-L-DOPA (3-OMD). As to the kind of experiment: Levels of L-DOPA and 3-O-methyl-L-DOPA in plasma of rats treated with L-DOPA plus benserazide. Type of data set: in vivo, rat. Conditions: 3 mg/kg oral, 2 h after administration; for L-DOPA % increase (plasma level, % control) / 3-OMD % reduction (plasma level, % control): L-DOPA plus benserazide 1 h before plasma collection; for 3-OMD % reduction (plasma level, % control): given with minus sign; for L-Dopa/3-OMD: plasma ratio.

Consider `O=[N+]([O-])c1cc(-c2nc(-c3c[n+]([O-])ccc3C(F)(F)F)no2)cc(O)c1O` [Compound 18, 3-Nitro-5-[3-(1-oxy-4-trifluoromethyl-pyridin-3-yl)-[1,2,4]oxadiazol-5-yl]-benzene-1,2-diol], for which the “Rat Liver COMT activity (% control)” value at rat liver COMT (1 h after administration) stood at 5.2 % control; on rat liver COMT (3 h after administration), 19.9 % control; at rat liver COMT (6 h after administration), 43.0 % control; on rat liver COMT (9 h after administration), 57.4 % control. The “COMT activity (% of control)” value at mouse liver COMT was 21.2 % of control. Moreover, the “% of viable cells” value in data set [1] is listed as 93.4%. Moreover, the “L-DOPA % increase (plasma level, % control)” value (from here on “L-DOPA % increase”) in data set [2] was 61.4%. The “3-OMD % reduction (plasma level, % control)” value (“3-OMD % reduction” for short) in data set [2] is listed as −63.9%. The L-Dopa/3-OMD in data set [2] stood at 4.5.
Turning to `O=[N+]([O-])c1cc(-c2nc(Cc3ccc(C(F)(F)F)[n+]([O-])c3)no2)cc(O)c1O` [Compound 43, 3-Nitro-5-[3-(1′-oxy-6-trifluoromethyl-pyridine-3-ylmethyl)-[1,2,4]oxadiazol-5-yl]-benzene-1,2-diol], the “Rat Liver COMT activity (% control)” value at rat liver COMT (1 h after administration) amounted to 16.1 % control; at rat liver COMT (3 h after administration), 30.6 % control; at rat liver COMT (6 h after administration), 64.3 % control; at rat liver COMT (9 h after administration), 77.9 % control. In addition, the “COMT activity (% of control)” value on mouse liver COMT was 27.2 % of control. In data set [1], the “% of viable cells” value is recorded as 101.5%. The “L-DOPA % increase” value in data set [2] was determined as 74.9%. Besides, the “3-OMD % reduction” value in data set [2] is −48.3%. The L-Dopa/3-OMD in data set [2] turned out to be 3.4.
Turning to `O=[N+]([O-])c1cc(-c2nc(-c3ccc[n+]([O-])c3C(F)(F)F)no2)cc(O)c1O` [Compound 42, 3-Nitro-5-[3-(1-oxy-2-trifluoromethyl-pyridin-3-yl)-[1,2,4]oxadiazol-5-yl]-benzene-1,2-diol], the “Rat Liver COMT activity (% control)” value at rat liver COMT (1 h after administration) is 3.6 % control; at rat liver COMT (3 h after administration) it was 6.1 % control; at rat liver COMT (6 h after administration), 12.3 % control; on rat liver COMT (9 h after administration), 30.9 % control. Further, the “COMT activity (% of control)” value on mouse liver COMT is given as 9.4 % of control. Besides, the “% of viable cells” value in data set [1] is recorded as 96.4%. Moreover, in data set [2], the “L-DOPA % increase” value was 30.7%. Moreover, the “3-OMD % reduction” value in data set [2] was −43.4%. Also, the L-Dopa/3-OMD in data set [2] stood at 2.3.
Consider `Cc1ccc(C(=O)c2cc(O)c(O)c([N+](=O)[O-])c2)cc1` [Tolcapone, 3,4-dihydroxy-4′ -methyl-5-nitrobenzophenone, reference compound], for which the “Rat Liver COMT activity (% control)” value at rat liver COMT (1 h after administration) was 18.3 % control; on rat liver COMT (3 h after administration) it was 28.6 % control; on rat liver COMT (6 h after administration), 56.8 % control; at rat liver COMT (9 h after administration), 83.9 % control. Further, the inhibition at 3 mg/kg at rat liver COMT (rat, po, read-out: COMT inhibition nine hours after administration) is around 16%. At mouse liver COMT, the “COMT activity (% of control)” value was 13.9 % of control. The “% of viable cells” value in data set [1] is reported as 27.2%. In addition, the “L-DOPA % increase” value in data set [2] was 202.4%. Moreover, the “3-OMD % reduction” value in data set [2] is −89.0%. In addition, the L-Dopa/3-OMD in data set [2] was 27.6.
For the compound `CCN(CC)C(=O)/C(C#N)=C/c1cc(O)c(O)c([N+](=O)[O-])c1` [Entacapone, (E)-2-cyano-N,N-diethyl-3-(3,4-dihydroxy-5-nitrophenyl)acrylamide, reference compound], in data set [2], the “L-DOPA % increase” value is listed as 68.5%; the “3-OMD % reduction” value is −55.6%; the L-Dopa/3-OMD was 3.8.
Consider `CSc1cc(-c2noc(-c3cc(O)c(O)c([N+](=O)[O-])c3)n2)cc[n+]1[O-]` [Compound 17, 5-[3-(2-Methylsulfanyl-1-oxy-pyridine-4-yl)-[1,2,4]oxadiazol-5-yl]-3-nitro-benzene-1,2-diol], for which the “COMT activity (% of control)” value at mouse liver COMT is given as 89.9 % of control. Besides, the “% of viable cells” value in data set [1] is reported as 96.0%.
As to `Cc1c(Cl)c(C)[n+]([O-])c(Cl)c1-c1noc(-c2cc(O)c(O)c([N+](=O)[O-])c2)n1` [Compound 45, 5-[3-(2,5-Dichloro-4,6-dimethyl-1-oxy-pyridin-3-yl)-[1,2,4]oxadiazol-5-yl]-3-nitrobenzene-1,2-diol], the “COMT activity (% of control)” value at mouse liver COMT is 30.4 % of control. The “% of viable cells” value in data set [1] is 86.6%. Besides, in data set [2], the “L-DOPA % increase” value came to 100.8%; the “3-OMD % reduction” value is given as −54.3%; the L-Dopa/3-OMD turned out to be 4.4.
Consider `Cc1cc(C(F)(F)F)c(-c2noc(-c3cc(O)c(O)c([N+](=O)[O-])c3)n2)c(-c2ccccc2)[n+]1[O-]` [Compound 33, 5-[3-(6-Methyl-1-oxy-2-phenyl-4-trifluoromethyl-pyridin-3-yl)-[1,2,4]oxadiazol-5-yl]-3-nitro-benzene-1,2-diol], for which the “COMT activity (% of control)” value at mouse liver COMT is listed as 39.8 % of control. The “% of viable cells” value in data set [1] was 45.0%.
Taken in the same sequence, the figures for `Cc1cc(-c2noc(-c3cc(O)c(O)c([N+](=O)[O-])c3)n2)cc(C)[n+]1[O-]` [Compound 15, 5-[3-(2,6-Dimethyl-1-oxy-pyridine-4-yl)-[1,2,4]oxadiazol-5-yl]-3-nitro-benzene-1,2-diol] were 79.2 % of control and 97.1%.
In the same order, the values of `O=[N+]([O-])c1cc(-c2nc(-c3cc[n+]([O-])c(N4CCSCC4)c3)no2)cc(O)c1O` [Compound 12, 3-Nitro-5-[3-(1-oxy-2-thiomorpholin-4-yl-pyridin-4-yl)-[1,2,4]oxadiazol-5-yl]-benzene-1,2-diol] are 92.9 % of control and 91.7%.
Taken in the same sequence, the figures for `Cc1c(-c2noc(-c3cc(O)c(O)c([N+](=O)[O-])c3)n2)c(C(F)(F)F)cc(-c2ccccc2)[n+]1[O-]` [Compound 32, 5-[3-(2-Methyl-1-oxy-6-phenyl-4-trifluoromethyl-pyridin-3-yl)-[1,2,4]oxadiazol-5-yl]-3-nitro-benzene-1,2-diol] were 9.7 % of control and 26.6%.
As to `O=[N+]([O-])c1cc(-c2nc(-c3ccc[n+]([O-])c3N3CCOCC3)no2)cc(O)c1O` [Compound 26, 5-[3-(2-Morpholin-4-yl-1-oxy-pyridin-3-yl)-[1,2,4]oxadiazol-5-yl]-3-nitro-benzene-1,2-diol], the “COMT activity (% of control)” value on mouse liver COMT is on record as 35.5 % of control. For the same compound, in data set [1], the “% of viable cells” value was 110.9%.
In the same order, the values of `O=[N+]([O-])c1cc(-c2nc(-c3cc[n+]([O-])c(Oc4ccccc4)c3)no2)cc(O)c1O` [Compound 14, 3-Nitro-5-[3-(1-oxy-2-phenoxy-pyridin-4-yl)-[1,2,4]oxadiazol-5-yl]-benzene-1,2-diol] are 76.8 % of control and 83.5%.
For the compound `CSc1ccc(-c2noc(-c3cc(O)c(O)c([N+](=O)[O-])c3)n2)c[n+]1[O-]` [Compound 27, 5-[3-(6-Methylsulfanyl-1-oxy-pyridin-3-yl)-[1,2,4]oxadiazol-5-yl]-3-nitro-benzene-1,2-diol], at mouse liver COMT, the “COMT activity (% of control)” value was 47.5 % of control. Further, in data set [1], the “% of viable cells” value was 95.7%.
In the same order, the values of `CS(=O)(=O)c1cc(-c2noc(-c3cc(O)c(O)c([N+](=O)[O-])c3)n2)cc[n+]1[O-]` [Compound 16, 5-[3-(2-Methanesulfonyl-1-oxy-pyridine-4-yl)-[1,2,4]oxadiazol-5-yl]-3-nitro-benzene-1,2-diol] are 85.9 % of control and 64.6%.
Taken in the same sequence, the figures for `O=[N+]([O-])c1cc(-c2nc(-c3c(Cl)c[n+]([O-])cc3Cl)no2)cc(O)c1O` [Compound 7, 5-[3-(3,5-Dichloro-1-oxy-pyridin-4-yl)-[1,2,4]oxadiazol-5-yl]-3-nitro-benzene-1,2-diol] were 14.2 % of control and 56.9%.
Taken in the same sequence, the figures for `O=[N+]([O-])c1cc(-c2nc(-c3ccc[n+]([O-])c3)no2)cc(O)c1O` [Compound 5, 3-Nitro-5-[3-(1-oxy-pyridin-3-yl)-[1,2,4]oxadiazol-5-yl]-benzene-1,2-diol] were 58.4 % of control and 93.8%.
